These results are taken from patent publication US7022315B2, “Administration of a thiol-based chemoprotectant compound” (Oregon Health & Science University, priority 2000, dated 2006).

In this series the test system is GM294 human fibroblasts. Nature of the series: Cytoenhancement and chemoprotection in fibroblasts, WST assay. The series is classed as cell-based. The settings on record: independent of BSO treatment; 1000 μg/ml. The procedure: Cytotoxicity was assessed in GM294 human fibroblasts, 1×10^4 cells per well in 96 well plates, using the WST colorometric assay. […] Data are expressed as the percentage of live cells compared to control samples (without chemotherapy) and each point represents the mean±s.d. of 4 wells.

For `CC(=O)N[C@@H](CS)C(=O)O` [NAC, N-acetylcysteine], the “chemoprotection against melphalan, cisplatin and carboplatin cytotoxicity” value is given as “partially to completely chemoprotective”.
